Source: PMC4721062, “Oxadiazole-2-oxides may have other functional targets, in addition to SjTGR, through which they cause mortality in Schistosoma japonicum” (Parasites & Vectors, 2016)
Like-named read-outs stand apart in the source and are kept apart here.

Tests used:
[1] = tested on: adult S. japonicum in mice; experiment: Treatment of infected mice at adult worm stage; type: in vivo, Schistosoma japonicum (ICR mice); details: for Number of eggs per gram of liver (Mean ± SD) / Number of worms (Mean ± SD): sacrificed day 42
Experimental: (§1) The abdominal skin of each mouse (ICR, female, 22–24 g) was exposed to 20 S. japonica cercariae (as described above). The mice were intraperitoneally injected with 10 mg/kg oxadiazole-2-oxides daily for 5 days, beginning either 7 or 35 days post-infection. Control mice were treated with 10 mg/kg of the carrier medium. All mice were sacrificed 42 days post-infection. The worm burden of each mouse was confirmed by counting the number of worms observed from a portal vein perfusion. The mouse livers were digested overnight with 5 % potassium hydroxyl solution at 37 °C and the eggs in the liver tissue were counted under an inverted phase contrast microscope. The worm and egg reduction rates were calculated using the following formulas: Wormreductionrate%=meannumberofadultwormspermouseincontrolgroup−meannumberofadultwormspermouseinexperimentalgroup/meannumberofadultwormspermouseincontrolgroup. Eggreductionrate%=meannumberofeggspermouseincontrolgroup−meannumberofeggspermouseinexperimentalgroup/meannumberofeggspermouseincontrolgroup.

S. mansoni = details: compared with 10 μM, 72 h data; cited from earlier work
[2] = tested on: juvenile S. japonicum in mice; experiment: Treatment of infected mice at juvenile worm stage; type: in vivo, Schistosoma japonicum (ICR mice); details: 10 mg/kg i.p. daily for 5 days from day 7 post-infection; for Number of eggs per gram of liver (Mean ± SD) / Number of worms (Mean ± SD): sacrificed day 42; for Egg reduction rate / Worm reduction rate: versus control, 10 mg/kg
Experimental: as §1

[3] = Cytotoxicity assay on Hela cells (MTT); type: cell-based; details: human
Experimental: Cytotoxicity assays were performed using Hela cells. Cells in the exponential growth phase were collected by centrifugation and a concentration of 4–5 × 10^4/mL was created. 100 μL of the cell suspension was added to each well of a 96-well plate and cultured overnight at 37 °C in a humid atmosphere with 5 % CO2. Oxadiazole-2-oxides (at 10, 20, 40, 80 and 160 μM) were added. Each concentration was assayed in triplicate, and control wells (no cells and no drugs) were assayed at the same time. The “no cell” control wells only contained RPMI 1640 medium, MTT, DMSO, and oxadiazole-2-oxides. The “no drug” control wells contained the Hela cells, RPMI 1640 medium, MTT and DMSO. The cells were cultured for 48 h at 37 °C in a humid atmosphere with 5 % CO2. Then, 20 μL of 5 mg/mL MTT was added to each well and the culture conditions were maintained for 4 h. After this point, the medium was removed and 150 μL DMSO was added into each well to dissolve any crystallisation. The value of absorbance at 570 nm of each well was measured (at 570 nm) with a microplate reader to assess the toxic effect of the oxadiazole-2-oxides on the vertebrate cells.

adult S. japonica = experiment: Activity against adult S. japonica in vitro with and without NO scavenger carboxy-PTIO; type: cell-based, Schistosoma japonicum; design: dose or concentration left out as unconfirmed; details: adult worms in vitro
Experimental: To assess the importance of NO production, the potassium salt of carboxy-PTIO, a NO scavenger, was dissolved in water and 100 mM was incubated with freshly perfused adult S. japonica in the presence or absence of […] oxadiazole-2-oxides. The worms’ mobility, tegumental alterations and parasite survival were monitored using an inverted microscope. The experiment was done in triplicate.
Fig. 4 Activity of oxadiazole-2-oxides against adult S. japonica in vitro, with and without carboxy-PTIO. Carboxy-PTIO was incubated with freshly perfused adult S. japonica at 100 mM in the presence and absence of […] oxadiazole-2-oxides. The worms’ mobility, tegumental alterations and survival rates were monitored under an inverted microscope. The experiment was done in triplicate. The percentage of adult worms that survived are shown (mean ± SD; n = 3)

juvenile S. japonicum = experiment: microbe, parasite or virus in culture; type: cell-based; details: for mortality at 50 µM / killing at 2 µM / killing at 5 µM / killing at 50 µM: Schistosoma japonicum; for mortality at 50 µM: read-out: Mortality of juvenile worms; for killing at 2 µM / killing at 5 µM / killing at 50 µM / Killing activity 24hr / Killing activity 48hr / Killing activity 72hr: juvenile worms; for Killing activity 24hr / Killing activity 48hr / Killing activity 72hr: 10 μM
Summary of the method: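 Juvenile S. japonicum, 20–30 tail-shed cercariae per well, were exposed to compounds at 2, 5, 10 and 50 μM in RPMI 1640 with 10% FBS and HEPES. Survival was scored microscopically at 24, 48 and 72 h, with death defined by disrupted internal structure or tegument or 1 min without motility. % D is dead/total, averaged over three experiments.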

[4] = mice, 10 mg/kg i.p. daily for 5 days from day 35 post-infection
[5] = 24 h, read-out: Killing activity 24hr
[6] = 48 h, read-out: Killing activity 48hr
[7] = 72 h, read-out: Killing activity 72hr
[8] = mice, 10 mg/kg i.p. daily for 5 days from day 35 post-infection, versus control, 10 mg/kg

## N#Cc1c(-c2ccc(Br)cc2)no[n+]1[O-] [Compound 7c]
[1]; [4]
  Number of eggs per gram of liver (Mean ± SD): 7213.0 ± 2658.0 (P < 0.05^**)
  Number of worms (Mean ± SD): 12.0 ± 3.9 (P < 0.05^**)
[1]; mice, 10 mg/kg i.p. daily for 5 days from day 35 post-infection, versus control
  Egg reduction rate: 10.2 (P > 0.05^*) %
S. mansoni
  Mortality in adult worms of S. mansoni: 100.0%
[2]
  Number of eggs per gram of liver (Mean ± SD): 3,859.4 ± 3,749.4 (P > 0.05^**)
  Number of worms (Mean ± SD): 1.4 ± 0.8 (P > 0.05^**)
  Egg reduction rate: 52.0 ( P > 0.05^*) %
  Worm reduction rate: 87.1 (P < 0.01^*) %
[3]
  viability at 72 h, 80 µM: 66%
Adult S. japonica
  Killing activity with versus without carboxy-PTIO: no differences in the killing activities
Juvenile S. japonicum; 24 h
  mortality at 50 µM: > 70%
  Killing activity 24hr: 100.0%D
Juvenile S. japonicum; 72 h
  mortality at 50 µM: 100%
  Killing activity 72hr: 100.0%D
Juvenile S. japonicum; [5]
  killing at 2 µM: 100%
  killing at 5 µM: 100%
  killing at 50 µM: 100%
Juvenile S. japonicum; [6]
  killing at 2 µM: 100%
  killing at 5 µM: 100%
  killing at 50 µM: 100%
Juvenile S. japonicum; [7]
  killing at 2 µM: 100%
  killing at 5 µM: 100%
  killing at 50 µM: 100%
Juvenile S. japonicum; 48 h
  Killing activity 48hr: 100.0%D

## N#Cc1c(-c2ccc(O)cc2)no[n+]1[O-] [Compound 8]
S. mansoni
  Mortality in adult worms of S. mansoni: 100.0%
Juvenile S. japonicum; 24 h
  mortality at 50 µM: < 30%
  Killing activity 24hr: 15.1%D
Juvenile S. japonicum; [5]
  killing at 2 µM: 12%
  killing at 5 µM: 12.8%
  killing at 50 µM: 26.8%
Juvenile S. japonicum; [6]
  killing at 2 µM: 18%
  killing at 5 µM: 23%
  killing at 50 µM: 28.2%
Juvenile S. japonicum; [7]
  killing at 2 µM: 21%
  killing at 5 µM: 46.2%
  killing at 50 µM: 33.8%
Juvenile S. japonicum; 48 h
  Killing activity 48hr: 23.3%D
Juvenile S. japonicum; 72 h
  Killing activity 72hr: 25.6%D

## N#Cc1c(-c2ccc(OC/C=C/CBr)cc2)no[n+]1[O-] [Compound 16]
[1]; mice treated at adult worm stage (data not shown)
  Reduction in the female worms: 44.7%
[1]; [4]
  Number of eggs per gram of liver (Mean ± SD): 6424.1 ± 1193.4 (P < 0.05^**)
  Number of worms (Mean ± SD): 3.7 ± 1.4 (P > 0.05^**)
[1]; [8]
  Egg reduction rate: 20.0 (P > 0.05^*) %
  Worm reduction rate: 69.4 (P < 0.01^*) %
[2]
  Number of eggs per gram of liver (Mean ± SD): 4,054.5 ± 1,322.1 (P > 0.05^**)
  Number of worms (Mean ± SD): 1.0 ± 0.5 (P > 0.05^**)
  Egg reduction rate: 49.5 (P < 0.01^*) %
  Worm reduction rate: 90.8 (P < 0.01^*) %
[3]
  viability at 72 h, 80 µM: 89%
Adult S. japonica
  Killing activity with versus without carboxy-PTIO: no differences in the killing activities
Juvenile S. japonicum; 24 h
  mortality at 50 µM: < 30%
  Killing activity 24hr: 20.9%D
Juvenile S. japonicum; 72 h
  mortality at 50 µM: 72.1 ± 3.7%
  Killing activity 72hr: 39.1%D
Juvenile S. japonicum; [5]
  killing at 2 µM: 14.7%
  killing at 5 µM: 16.1%
  killing at 50 µM: 31.4%
Juvenile S. japonicum; [6]
  killing at 2 µM: 22.7%
  killing at 5 µM: 21.9%
  killing at 50 µM: 60.5%
Juvenile S. japonicum; [7]
  killing at 2 µM: 25.3%
  killing at 5 µM: 34.3%
  killing at 50 µM: 72.1%
Juvenile S. japonicum; 48 h
  Killing activity 48hr: 27.3%D
